Like-named read-outs stand apart in the source and are kept apart here.

Experiment [1] concerns GM00371 cells. The experiment is described as follows: Viability assay (Cell titer glo) in the 3-HIB assay. The class given is cell-based, human. The note with it: read-out: 3HIB INHIBITION IC50 (μM) MEAN GM00371 cells Viablility Assay. Summed up:
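GM00371 cells (10,000/well, EMEM/15% FBS) were exposed for 24 h at 37 °C to compounds in 1:3 serial dilution from 30 μM top concentration in EMEM. Reference Compound B at 30 μM served as maximal-toxicity control. Viability read as CellTiter-Glo luminescence.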

Experiment [2] in a line: 3-HIB assay in vitro, direct MS assay of conditioned media. The class given is cell-based, human. The note with it: GM00371 cells, read-out: 3HIB INHIBITION IC50 (μM) MEAN GM00371 cells Direct MS Assay.

On to `CNC(=O)c1ccc2c(c1)nc(-c1ccccc1C#N)n2[C@H]1CCC[C@@H](NC(=O)c2ccc(C#N)s2)C1` [Compound 139], for which the IC50 in experiment [1] (24 hours) and in experiment [2] (24 hours) was not below 1 µM throughout.

Turning to `CNC(=O)c1ccc2c(c1)nc(-c1ccccc1C#N)n2[C@H]1CCC[C@@H](NC(=O)c2ccc(Br)s2)C1` [Compound 137], the half-inhibitory concentration (IC50) in experiment [1] (24 hours) and in experiment [2] (24 hours) was 0.1 to 0.5 µM each time.

Regarding `CNC(=O)c1cc2nc(-c3ccccc3C#N)n([C@H]3CCC[C@@H](NC(=O)c4ccc(Br)s4)C3)c2cc1F` [Compound 157], the IC50 was less than 0.1 µM in experiment [1] (Homo sapiens, 24 h) and less than 0.1 µM in experiment [2] (Homo sapiens, 24 h).

For `COC(=O)c1cc2nc(-c3ccccn3)n([C@@H]3CCC[C@H](NC(=O)c4ccc(Br)s4)C3)c2cn1` [Compound 291], the IC50 in experiment [1] (Homo sapiens, 24 h) fell in the range of 0.1 to 0.5 µM; in experiment [2] (Homo sapiens, 24 h) it was 0.1 to 0.5 µM.

With `CNC(=O)c1cc2nc(-c3ccccn3)n([C@H]3CCC[C@@H](NC(=O)c4ccc(Br)s4)C3)c2cn1` [Compound 292], the IC50 lay in the range of 0.1 to 0.5 µM in experiment [1] (Homo sapiens, 24 h) and 0.1 to 0.5 µM in experiment [2] (Homo sapiens, 24 h).

Take `CNC(=O)c1ccc2c(c1)nc(-c1ccccn1)n2[C@@H]1CCC[C@H](NC(=O)c2ccc(C#N)s2)C1` [Compound 112]: the IC50 was not below 1 µM in experiment [1] (Homo sapiens, 24 h) and 0.5 to 1 µM in experiment [2] (Homo sapiens, 24 h).

Take `CNC(=O)c1ccc2c(c1)nc(-c1ccccc1C)n2[C@H]1CCC[C@@H](NC(=O)c2ccc(C#N)s2)C1` [Compound 134]: the IC50 was not below 1 µM in experiment [1] (Homo sapiens, 24 h) and 0.5 to 1 µM in experiment [2] (Homo sapiens, 24 h).

Take `CNC(=O)c1ccc2c(c1)nc(-c1cccc(F)c1)n2[C@H]1CCC[C@@H](NC(=O)c2ccc(Br)s2)C1` [Compound 154]: the 50% inhibitory concentration (IC50) was 0.1 to 0.5 µM in experiment [1] (Homo sapiens, 24 h) and less than 0.1 µM in experiment [2] (Homo sapiens, 24 h).

Consider `CNC(=O)c1ccc2c(c1)nc(-c1ccccc1F)n2[C@H]1CCC[C@@H](NC(=O)c2ccc(Br)s2)C1` [Compound 145], for which the IC50 was 0.1 to 0.5 µM in experiment [1] (Homo sapiens, 24 h) and less than 0.1 µM in experiment [2] (Homo sapiens, 24 h).

Regarding `COC(=O)c1ccc2c(c1)nc(-c1ccccn1)n2[C@@H]1CCC[C@H](NC(=O)c2ccc(Br)s2)C1` [Compound 109], the half-inhibitory concentration (IC50) is 0.1 to 0.5 µM in experiment [1] (Homo sapiens, 24 h) and 0.1 to 0.5 µM in experiment [2] (Homo sapiens, 24 h).

Turning to `CNC(=O)c1cc2nc(-c3ccccc3C)n([C@H]3CCC[C@@H](NC(=O)c4ccc(Br)s4)C3)c2cc1F` [Compound 208], the concentration for half-maximal inhibition (IC50) is 0.1 to 0.5 µM in experiment [1] (Homo sapiens, 24 h) and not below 1 µM in experiment [2] (Homo sapiens, 24 h).

For `CNC(=O)c1ccc2c(c1)nc(-c1ccccc1C)n2[C@H]1CCC[C@@H](NC(=O)c2ccc(Br)s2)C1` [Compound 135], the IC50 in experiment [1] (Homo sapiens, 24 h) is 0.5 to 1 µM; in experiment [2] (Homo sapiens, 24 h) it was 0.1 to 0.5 µM.

In the case of `CNC(=O)c1ccc2c(c1)nc(-c1ccccc1C#N)n2[C@H]1CCC[C@@H](NC(=O)c2ccc(Br)s2)C1` [Compound 136], the IC50 is less than 0.1 µM in experiment [1] (Homo sapiens, 24 h) and less than 0.1 µM in experiment [2] (Homo sapiens, 24 h).

For the compound `CNC(=O)c1ccc2c(c1)nc(-c1ccccc1C=O)n2[C@H]1CCC[C@@H](NC(=O)c2ccc(Br)s2)C1` [Compound 161], the IC50 fell in the range of 0.1 to 0.5 µM in experiment [1] (Homo sapiens, 24 h) and 0.1 to 0.5 µM in experiment [2] (Homo sapiens, 24 h).

`CNC(=O)c1ccc2c(c1)nc(-c1cccc(F)c1O)n2[C@H]1CCC[C@@H](NC(=O)c2ccc(Br)s2)C1` [Compound 163]: the half-inhibitory concentration (IC50) in experiment [1] (Homo sapiens, 24 h) was in the range of 0.1 to 0.5 µM; in experiment [2] (Homo sapiens, 24 h) it was 0.1 to 0.5 µM.

`C#Cc1ccccc1-c1nc2cc(C(=O)NC)ccc2n1[C@H]1CCC[C@@H](NC(=O)c2ccc(Br)s2)C1` [Compound 151]: the IC50 is 0.1 to 0.5 µM in experiment [1] (Homo sapiens, 24 h) and less than 0.1 µM in experiment [2] (Homo sapiens, 24 h).

Take `CNC(=O)c1cc2nc(-c3ccccc3F)n([C@H]3CCC[C@@H](NC(=O)c4ccc(Br)s4)C3)c2cc1F` [Compound 207]: the IC50 is 0.1 to 0.5 µM in experiment [1] (Homo sapiens, 24 h) and less than 0.1 µM in experiment [2] (Homo sapiens, 24 h).

For `CNC(=O)c1ccc2c(c1)nc(-c1c(O)cccc1F)n2[C@H]1CCC[C@@H](NC(=O)c2ccc(Br)s2)C1` [Compound 184], the IC50 in experiment [1] (Homo sapiens, 24 h) is 0.1 to 0.5 µM; in experiment [2] (Homo sapiens, 24 h) it was 0.1 to 0.5 µM.

For the compound `CNC(=O)c1ccc2c(c1)nc(-c1ccccc1C#N)n2[C@H]1CCC[C@@H](NC(=O)c2ccc(C#N)s2)C1` [Compound 138], the IC50 was not below 1 µM in experiment [1] (Homo sapiens, 24 h) and not below 1 µM in experiment [2] (Homo sapiens, 24 h).

As to `CNC(=O)c1cc2nc(-c3ccccn3)n([C@H]3CCC[C@@H](NC(=O)c4ccc(Br)s4)C3)c2cc1F` [Compound 155], the IC50 was 0.5 to 1 µM in experiment [1] (Homo sapiens, 24 h) and 0.5 to 1 µM in experiment [2] (Homo sapiens, 24 h).

For the origin of these results see patent US20220274967A1, “BCAT MODULATION” (Icagen, LLC, priority 2019, published 2022).
